# Results from publication PMC7356970, “A Population Pharmacokinetic and Pharmacodynamic Model of CKD-519” (Pharmaceutics, 2020).
# How the values were obtained:
# [1] = system: serum CETP concentration; assay: serum CETP concentration during multiple dosing; format: in vivo, human; conditions: time-dependent, in house data
# Excerpt: As reported earlier in other CETP inhibitors, the administration of CKD-519 in this study led to an approximately 2.5 fold increase in serum CETP concentration in a time-dependent manner (in house data). In the placebo group, serum CETP concentration increased by about 30% after two weeks (in house data). It has been reported that transcription of the CETP gene is under the control of extrinsic and intrinsic factors. Dietary cholesterol up-regulates CETP expression in human CETP-transgenic mice, and plasma cholesterol levels also correlate with CETP mass in humans. The increase in CETP activity in the placebo group might be due to increased serum CETP mass because dietary cholesterol regularly served during hospitalization for three weeks could have promoted CETP expression. […] Linear, Emax, and sigmoid Emax models were tested to explain CETP activity increase in the placebo group, and the Emax model by time best described the placebo effect.
# [2] = system: LDL-C; assay: population LDL-C model (turnover, sigmoid Emax); format: in vivo, human
# Experimental: (§1) Blood samples for PK or PD were collected on days 1 (0, 1, 2, 3, 4, 5, 6, 7, 8, 10, 12, 18, and 24 h) and 14 (0, 1, 2, 3, 4, 5, 6, 7, 8, 10, 12, 18, 24, 32, 48, 72, 96, 120, 144, and 168 h), along with daily sampling on days 2 through 13 to determine trough levels of drug concentration, CETP activity, and lipid values. Each blood sample for PK and CETP activity was collected in sodium heparin tubes and then centrifuged at 1900 g for 10 min. Their aliquots were stored at or below […] until analysis. The plasma concentrations of CKD-519 were measured using a validated high-performance liquid chromatography-tandem mass spectrometry assay. A 100 μL plasma sample was mixed with 10 μL internal standard working solution and 300 μL acetonitrile. After centrifugation, 3 μL supernatant was injected into the column. The lower limit of quantification was 1.0 ng/mL. The calibration curve was linear over the concentration range of 1.0–2000 ng/mL. The precision of the assay was less than 2.7% coefficient of variation, and the accuracy of the assay was within the range of 93.7–113.0% [5]. Plasma CETP activity was measured by using a fluorescent assay method previously described. HDL-C and LDL-C were measured with an ADIVA 1650 Clinical Chemistry System (Siemens Medical Solutions, Tarrytown, NY, USA).
# (§2) For each of the HDL-C and LDL-C model development, their clinical laboratory results were used. Their responses by changing CETP activity were described using turnover models. Taking into account the physiological mechanism of CETP on lipid metabolism, the CETP effect was incorporated into the model as a stimulatory function of HDL-C elimination and an inhibitory function of LDL-C elimination. The effect of CETP activity on HDL-C or LDL-C was evaluated using linear, Emax, or sigmoid Emax models.
# (§3) HDL-C and LDL-C models were best described with the sigmoid Emax function. The LDL-C in the placebo group tended to increase gradually over time. Thus, a linear model was used to describe the placebo effect on LDL-C after comparison with Emax and sigmoid Emax models. The changes in HDL-C and LDL-C concentration were described as follows:(7) dHDL/dt=Ksyn−Kdeg×AHDL×(1+RESCETP) (8) dLDL/dt=Ksy×(1+PLA)−Kdeg×ALDL×(1−RESCETP) (9) RESCETP=CETPactivityγ×Rmax/CETPactivityγ+R50γ (10) PLA=β×time where Ksyn and Ksy are the zero-order production rate constant, Kdeg is the first-order elimination rate constant, RESCETP is the change in CETP activity, Rmax is the maximal effect of CETP activity on HDL-C and LDL-C response, R50 is the CETP activity required to attain 50% maximal response of HDL-C and LDL-C, PLA is the placebo effect, and β is the proportionality constant.
# [3] = molecular target: T1, CETP activity (Homo sapiens, UniProt P11597); assay: food effect on inhibition of CETP activity, single 200 mg; format: in vivo
# T1 construct: from tissue; host or cells: plasma of healthy subjects (sodium heparin tubes)
# T1 sequence (P11597 18-493): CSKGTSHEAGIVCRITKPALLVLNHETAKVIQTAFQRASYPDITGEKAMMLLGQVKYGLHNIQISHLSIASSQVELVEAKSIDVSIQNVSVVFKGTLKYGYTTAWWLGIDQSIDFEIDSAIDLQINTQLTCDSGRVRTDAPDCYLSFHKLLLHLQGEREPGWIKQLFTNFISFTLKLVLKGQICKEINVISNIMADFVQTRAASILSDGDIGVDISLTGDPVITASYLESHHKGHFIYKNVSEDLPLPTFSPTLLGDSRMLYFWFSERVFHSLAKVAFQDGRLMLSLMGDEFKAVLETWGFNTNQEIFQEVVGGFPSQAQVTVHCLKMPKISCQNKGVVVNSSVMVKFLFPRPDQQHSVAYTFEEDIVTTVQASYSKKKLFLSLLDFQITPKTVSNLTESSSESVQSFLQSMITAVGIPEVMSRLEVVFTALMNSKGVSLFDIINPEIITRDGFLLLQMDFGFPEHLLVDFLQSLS
# Excerpt: (§4) The exposure of CKD-519 increased with the dose. However, maximum plasma concentration (Cmax) and area under the plasma concentration-time curve (AUC) normalized by dose decreased with each incremental dose.
# [4] = system: HDL-C; assay: population HDL-C model (turnover, sigmoid Emax); format: in vivo, human
# Experimental: as §1, §2, §3
# [5] = food effect on PK, single 200 mg, standard meal vs fasted; format: in vivo, human; conditions: single 200 mg with a standard meal; in house data
# Excerpt: as §4
# [6] = molecular target: T1, CETP activity; parameters: method as in PMID 27895466; conditions: healthy subjects, cited from earlier work
# [7] = cited from earlier work
# [8] = molecular target: T2, Plasma CETP activity (Homo sapiens, UniProt P11597); assay: population CETP model (turnover model), plasma CETP activity by fluorescent assay; format: in vivo
# T2 construct: from tissue; host or cells: plasma of healthy subjects (sodium heparin tubes)
# T2 sequence (P11597 18-493): T1 sequence (P11597 18-493)
# Experimental: as §1
# Since CETP inhibition is closely related to HDL-C increase and LDL-C decrease, the CETP model was included as a link between the PK model of CKD-519 and cholesterol (HDL-C and LDL-C) models. For the CETP model, CETP activity was used as a dependent variable as this was the primary parameter of interest.
# The turnover model was used to describe the relationship between CETP activity and plasma concentration of CKD-519. The effect of CKD-519 was applied in the model as stimulating the elimination of CETP activity. Because the CETP activity increased over time in the placebo group, the response of placebo treatment was incorporated into the CETP model. The effects of CKD-519 and placebo treatment were evaluated as linear, Emax, or sigmoid Emax relationships. […]
# [9] = multiple-dose study in healthy male subjects, plasma PK and population PK model; format: in vivo, human; conditions: for CL/F: observed
# Experimental: A randomized, double-blinded, placebo-controlled, multiple-dose, and dose-escalation study was conducted in a total of 32 healthy male subjects aged 19–55 years in four cohorts (50, 100, 200, and 400 mg). Six subjects were assigned to CKD-519, and two to matching placebo in each cohort. Dose escalation to the next cohort was done after the safety profile was reviewed. CKD-519 was available as two dosage forms of 50 and 100 mg tablets.
# Enrolled subjects were admitted on day −1. CKD-519 or placebo was administered to randomly assigned subjects for 14 days with a standard breakfast meal (700–800 kcal, containing 5–25% fat content). All subjects were hospitalized until completion of blood sampling for PK and PD (from day −1 to day 21). All meals were nutritionally equivalent and provided at the same time scheduled throughout the study period. The participants were not permitted to take any drugs or herbal medications and also were restricted from consuming any other snacks or beverages during the study.
# as §1
# PK and PD models were developed using NONMEM version 7.3 (Icon Development Solutions, Ellicott City, MD, USA) using a first-order conditional estimation with interaction method (FOCE-INTER). R (version 3.6.1, R Foundation for Statistical Computing, Vienna, Austria) was used for data preparation, graphical analysis, and model diagnostics. The population PK-PD model was developed sequentially. The PK model was initially developed, and then the CETP model (PK-PD) was developed using individual PK parameters estimated from the final PK model. Finally, the cholesterol (HDL-C or LDL-C) models were developed using the individual CETP parameters estimated from the final CETP model.
# Inter-individual variability (IIV) for each parameter in all models was assumed to follow a Gaussian distribution with a mean of 0 and variance of ω^2. For the PK model, once the IIV term was selected, the covariance between the terms was assessed using an omega block on selected parameters. As for the residual error, additive, proportional, and combined models were tested. The model was selected after a comparison of several criteria such as a decrease in the objective function value (OFV), completion of the estimation and covariance routines, the precision of the parameter and error estimates, and visual exploration of the diagnostic plots.
# Several disposition models were assessed, including 1-, 2-, and 3- compartment structural models. Absorption was evaluated with first-order, zero-order (with and without lag time), Weibull-type, and Erlang’s model. The bioavailability was assessed about the effects of the dose and time. […]
# [10] = parameters: method as in PMID 30107219, PMID 27895466; conditions: at pH 7.4; cited from earlier work
# [11] = final population PK model estimate
compound,measurement,setting,value
COc1cc(F)c(C(C)C)cc1C1=C(CN2C(=O)O[C@H](c3cc(C(F)(F)F)cc(C(F)(F)F)c3)[C@@H]2C)CC(C)(C)CC1 [CKD-519],increase in serum CETP concentration,[1],approximately 2.5 fold
same,"ωGAM, interindividual variability on γ","[2]; CV%, LDL-C model",50.9%
same,"R50, CETP activity of half-maximal effect on LDL-C response",[2]; LDL-C model estimate,80.7 pmol
same,"Rmax, maximal effect of CETP activity on LDL-C response",[2]; LDL-C model estimate,0.8
same,"γ, steepness of the CETP activity versus LDL-C relationship",[2]; LDL-C model estimate,2.2
same,maximal decrease in LDL-C,[2]; estimated,47–66%
same,inhibitory effect of CETP activity,[3]; fasted group,81.5%
same,inhibitory effect of CETP activity,[3]; fed group,91.4%
same,"R50, CETP activity of half-maximal effect on HDL-C response",[4]; HDL-C model estimate,185.0 pmol
same,"Rmax, maximal effect of CETP activity on HDL-C response",[4]; HDL-C model estimate,1.5
same,"γ, steepness of the CETP activity versus HDL-C relationship",[4]; HDL-C model estimate,2.1
same,maximal increase in HDL-C,[4]; estimated,160–190%
same,increase in AUC relative to the fasted state,[5],5.8 fold
same,increase in Cmax relative to the fasted state,[5],8.7 fold
same,maximum inhibitory effect of CETP activity,[6]; single administration 25–400 mg,63–83%
same,EC50 (CETP activity),[6]; single administration,0.0173 µg/mL
same,aqueous solubility,[7],less than 1.0 μg/mL
same,solubility in deionized water,[7]; in vitro solubility test,insoluble
same,solubility in ethyl alcohol,[7]; in vitro solubility test,freely soluble
same,"EC50, plasma drug concentration of half-maximal effect on CETP activity",[8]; CETP model estimate,0.587 µg/mL
same,"Emax, maximal effect of plasma drug concentration on CETP activity","[8]; CETP model estimate, stimulation of Kout",18.2
same,"ωEmax, interindividual variability on Emax",[8]; CV%,39.5%
same,increase of CL/F from 50 mg to 200 mg,[9]; 50 mg vs 200 mg,approximately 2.5 fold
same,increase of AUC after multiple administration compared to the first dose,[9]; 400 mg group,three-fold increase
same,"α1, proportionality constant for fraction of first-order absorption process depending on time","[9]; 50, 100 and 200 mg dose groups",0.002
same,"ωBmax, interindividual variability on BMAX",[9]; CV%,28.2%
same,"ωCL/F, interindividual variability on CL/F",[9]; CV%,15.6%
same,"ωKtr, interindividual variability on Ktr",[9]; CV%,14.1%
same,"ωV3/F, interindividual variability on V3/F",[9]; CV%,58.1%
same,Tmax,[9]; all dose groups,approximately 1 h
same,"Ka, absorption rate constant",[9]; [11],1.09 h⁻¹
same,"V2/F, volume of peripheral compartment 1",[9]; [11],45.4 L
same,"V3/F, volume of peripheral compartment 2",[9]; [11],1006.0 L
same,"V/F, volume of central compartment",[9]; [11],11.4 L
same,"CL/F, clearance","[9]; final population PK model estimate, 50–400 mg daily for 14 days with standard meal",6.4 L/h
same,"Ktr, transit rate constant","[9]; final population PK model estimate, Erlang's absorption, five transit compartments",1.10 h⁻¹
same,CL/F,[9]; 50 mg,11.98 L/h
same,CL/F,[9]; 200 mg,30.04 L/h
same,CL/F,[9]; 400 mg,23.98 L/h
same,half-life,"[9]; terminal, across dose groups",145.4 to 166.2 h
same,LogP,[10],> 5.0
